Measurements published in PubChem BioAssay (NCI).
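Compound exposure: 48 hours, 5 concentrations, 96-well plates. The concentration for 50% growth inhibition is given as GI50. The concentration for full growth arrest is given as TGI.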

Key:
Experiment in all cases: NCI anticancer screen, dose series, 48 h
HCC-2998 colon = test system: HCC-2998 colon
OVCAR-5 ovarian = test system: OVCAR-5 ovarian
LOX IMVI melanoma = test system: LOX IMVI melanoma
NCI/ADR-RES ovarian = test system: NCI/ADR-RES ovarian
OVCAR-8 ovarian = test system: OVCAR-8 ovarian
A498 renal = test system: A498 renal
U251 CNS = test system: U251 CNS
NCI-H23 lung = test system: NCI-H23 lung
MDA-MB-435 = test system: MDA-MB-435
UO-31 renal = test system: UO-31 renal
IGROV1 ovarian = test system: IGROV1 ovarian
MALME-3M melanoma = test system: MALME-3M melanoma
SK-MEL-5 melanoma = test system: SK-MEL-5 melanoma
SNB-75 CNS = test system: SNB-75 CNS
SK-MEL-2 melanoma = test system: SK-MEL-2 melanoma
RXF 393 renal = test system: RXF 393 renal
CCRF-CEM leukemia = test system: CCRF-CEM leukemia
SR leukemia = test system: SR leukemia
MDA-MB-231 breast = test system: MDA-MB-231 breast
RPMI-8226 leukemia = test system: RPMI-8226 leukemia
SK-OV-3 ovarian = test system: SK-OV-3 ovarian
SF-268 CNS = test system: SF-268 CNS
A549 NSCLC = test system: A549 NSCLC
KM12 colon = test system: KM12 colon
UACC-62 melanoma = test system: UACC-62 melanoma
SW-620 colon = test system: SW-620 colon
HOP-62 NSCLC = test system: HOP-62 NSCLC
NCI-H522 lung = test system: NCI-H522 lung
PC-3 prostate = test system: PC-3 prostate
BT-549 breast = test system: BT-549 breast
HS 578T breast = test system: HS 578T breast
COLO 205 colon = test system: COLO 205 colon
T-47D breast = test system: T-47D breast
HT29 colon = test system: HT29 colon
HCT-116 colon = test system: HCT-116 colon
CAKI-1 renal = test system: CAKI-1 renal
ACHN renal = test system: ACHN renal
786-0 renal = test system: 786-0 renal
TK-10 renal = test system: TK-10 renal
OVCAR-4 ovarian = test system: OVCAR-4 ovarian
MCF7 breast = test system: MCF7 breast
HCT-15 colon = test system: HCT-15 colon
NCI-H226 lung = test system: NCI-H226 lung
SN12C renal = test system: SN12C renal
M14 melanoma = test system: M14 melanoma
DU-145 prostate = test system: DU-145 prostate
SNB-19 CNS = test system: SNB-19 CNS
OVCAR-3 ovarian = test system: OVCAR-3 ovarian
SK-MEL-28 melanoma = test system: SK-MEL-28 melanoma
HL-60(TB) leukemia = test system: HL-60(TB) leukemia
EKVX NSCLC = test system: EKVX NSCLC
K-562 leukemia = test system: K-562 leukemia
SF-295 CNS = test system: SF-295 CNS
UACC-257 melanoma = test system: UACC-257 melanoma
MOLT-4 leukemia = test system: MOLT-4 leukemia
HOP-92 NSCLC = test system: HOP-92 NSCLC
SF-539 CNS = test system: SF-539 CNS
NCI-H460 lung = test system: NCI-H460 lung

O=C1/C=C/[C@@H](O)[C@@H]2C[C@@H](O)C[C@H]2/C=C/CCC[C@H](CCOCc2ccccc2)O1
GI50 (HCC-2998 colon): 0.11 µM
GI50 (OVCAR-5 ovarian): 0.246 µM
TGI (OVCAR-5 ovarian): > 100 µM
GI50 (LOX IMVI melanoma): 0.0352 µM
TGI (LOX IMVI melanoma): 0.168 µM
GI50 (NCI/ADR-RES ovarian): 0.0469 µM
TGI (NCI/ADR-RES ovarian): 5.27 µM
GI50 (OVCAR-8 ovarian): 0.0523 µM
GI50 (A498 renal): 0.0178 µM
TGI (A498 renal): 0.123 µM
GI50 (U251 CNS): 0.0978 µM
TGI (U251 CNS): > 100 µM
GI50 (NCI-H23 lung): 0.105 µM
TGI (NCI-H23 lung): 0.714 µM
GI50 (MDA-MB-435): 0.0539 µM
TGI (MDA-MB-435): > 100 µM
GI50 (UO-31 renal): 0.0701 µM
TGI (UO-31 renal): 26.6 µM
GI50 (IGROV1 ovarian): 0.335 µM
TGI (IGROV1 ovarian): > 26.3 µM
GI50 (MALME-3M melanoma): 0.0365 µM
TGI (MALME-3M melanoma): 0.428 µM
GI50 (SK-MEL-5 melanoma): < 0.0134 µM
TGI (SK-MEL-5 melanoma): 0.0227 µM
GI50 (SNB-75 CNS): < 0.0277 µM
TGI (SNB-75 CNS): > 95.4 µM
GI50 (SK-MEL-2 melanoma): 0.172 µM
TGI (SK-MEL-2 melanoma): 0.649 µM
GI50 (RXF 393 renal): < 0.0139 µM
TGI (RXF 393 renal): 0.0436 µM
GI50 (CCRF-CEM leukemia): 0.301 µM
TGI (CCRF-CEM leukemia): > 100 µM
GI50 (SR leukemia): 0.142 µM
GI50 (MDA-MB-231 breast): 0.102 µM
TGI (MDA-MB-231 breast): 0.267 µM
GI50 (RPMI-8226 leukemia): 0.297 µM
TGI (RPMI-8226 leukemia): 20.6 µM
GI50 (SK-OV-3 ovarian): 0.0481 µM
TGI (SK-OV-3 ovarian): > 100 µM
GI50 (SF-268 CNS): 0.0376 µM
TGI (SF-268 CNS): > 100 µM
GI50 (A549 NSCLC): 0.066 µM
TGI (A549 NSCLC): > 100 µM
TGI (KM12 colon): 0.031 µM
GI50 (UACC-62 melanoma): 0.0372 µM
TGI (UACC-62 melanoma): 12.6 µM
GI50 (SW-620 colon): 0.0994 µM
TGI (SW-620 colon): 0.822 µM
GI50 (HOP-62 NSCLC): 0.0738 µM
TGI (HOP-62 NSCLC): > 100 µM
GI50 (NCI-H522 lung): 0.234 µM
TGI (NCI-H522 lung): 0.577 µM
GI50 (PC-3 prostate): 0.164 µM
TGI (PC-3 prostate): > 100 µM
GI50 (BT-549 breast): 0.117 µM
TGI (BT-549 breast): > 21.9 µM
GI50 (HS 578T breast): < 0.0226 µM
TGI (HS 578T breast): > 100 µM
GI50 (COLO 205 colon): 0.0292 µM
TGI (COLO 205 colon): 0.0809 µM
GI50 (T-47D breast): 0.192 µM
TGI (T-47D breast): 0.556 µM
GI50 (HT29 colon): 0.0274 µM
TGI (HT29 colon): 0.212 µM
GI50 (HCT-116 colon): 0.162 µM
TGI (HCT-116 colon): 0.379 µM
GI50 (CAKI-1 renal): 0.331 µM
TGI (CAKI-1 renal): > 100 µM
GI50 (ACHN renal): 0.317 µM
TGI (ACHN renal): > 100 µM
GI50 (786-0 renal): 0.0223 µM
TGI (786-0 renal): 0.0537 µM
GI50 (TK-10 renal): 0.186 µM
TGI (TK-10 renal): 0.658 µM
GI50 (OVCAR-4 ovarian): 0.0643 µM
TGI (OVCAR-4 ovarian): > 41.2 µM
GI50 (MCF7 breast): 0.0399 µM
TGI (MCF7 breast): 0.177 µM
GI50 (HCT-15 colon): 0.29 µM
TGI (HCT-15 colon): 12.9 µM
GI50 (NCI-H226 lung): 0.0188 µM
TGI (NCI-H226 lung): 0.251 µM
GI50 (SN12C renal): 0.272 µM
TGI (SN12C renal): > 100 µM
GI50 (M14 melanoma): 0.0403 µM
TGI (M14 melanoma): 13.2 µM
GI50 (DU-145 prostate): 0.412 µM
TGI (DU-145 prostate): > 100 µM
GI50 (SNB-19 CNS): 0.138 µM
TGI (SNB-19 CNS): > 100 µM
GI50 (OVCAR-3 ovarian): 0.039 µM
TGI (OVCAR-3 ovarian): 0.187 µM
GI50 (SK-MEL-28 melanoma): < 0.017 µM
TGI (SK-MEL-28 melanoma): 0.0849 µM
GI50 (HL-60(TB) leukemia): 0.282 µM
TGI (HL-60(TB) leukemia): 3.31 µM
GI50 (EKVX NSCLC): 0.141 µM
TGI (EKVX NSCLC): > 100 µM
GI50 (K-562 leukemia): 0.327 µM
TGI (K-562 leukemia): > 100 µM
GI50 (SF-295 CNS): 0.051 µM
TGI (SF-295 CNS): > 100 µM
GI50 (UACC-257 melanoma): 0.0161 µM
TGI (UACC-257 melanoma): 2.32 µM
GI50 (MOLT-4 leukemia): 0.305 µM
TGI (MOLT-4 leukemia): > 43.7 µM
GI50 (HOP-92 NSCLC): 0.234 µM
TGI (HOP-92 NSCLC): 0.909 µM
GI50 (SF-539 CNS): 0.112 µM
TGI (SF-539 CNS): > 100 µM
GI50 (NCI-H460 lung): 0.38 µM
TGI (NCI-H460 lung): > 100 µM
